Values quoted from earlier work as cited in patent publication US8211887B2, “Topical preparation and method for transdermal delivery and localization of therapeutic agents” (priority 2005, dated 2012).
Where two headings read alike, the source gives them in different places.

[1] = local anesthetic, for levobupivacaine: locally

SMILES: CCN(CC)CCOC(=O)c1ccc(N)cc1Cl [chloroprocaine]
- duration of action (local anesthetic): 0.5 to 1 h
- onset of action (local anesthetic): 6 to 12 min
- peak (local anesthetic): 10 to 20 min

SMILES: CCCCN1CCCC[C@H]1C(=O)Nc1c(C)cccc1C [levobupivacaine]
- duration of action (if used for epidural or peripheral nerve blocks or obstetrical anesthesia): 3 to 9 h
- onset of action (local anesthetic): 2 to 10 min
- duration of action [1]: 2 to 4 h

SMILES: Cc1cccc(C)c1NC(=O)C1CCCCN1C (stereo not drawn) [mepivacaine]
- duration of action (local anesthetic): 0.75 to 1.5 h
- onset of action (local anesthetic): 3 to 5 min
- peak (local anesthetic): 15 to 45 min

SMILES: CCN(CC)CCOC(=O)c1ccc(N)cc1 [procaine]
- onset of action (local anesthetic): 5 to 10 min
- peak (local anesthetic): less than 30 minutes
- duration of action [1]: less than 2 hours

SMILES: CCCN1CCCC[C@H]1C(=O)Nc1c(C)cccc1C [ropivacaine]
- onset of action (local anesthetic): 1 to 15 min
- peak (local anesthetic): 20 to 45 min
- duration of action [1]: 2 to 6 h
